# Experimental data: patent US20250090498A1, “TREATMENT OF PRIMARY CTLA-4 CHECKPOINT RELATED IMMUNODEFICIENCIES” (ADIENNE PHARMA & BIOTECH SA, priority 2023, published 2025)
# “Also recorded” adds a separate entry of the source.
# Tests used:
# [1] = preliminary pharmacokinetics in serum after Eudragit-formulated 3-IAld (90% 3-IAld/10% 13C8-labeled 3-IAld), mass spectrometry; format: in vivo
# Description: Primary pharmacodynamics studies have been performed. The mode of action of 3-IAld occurs upon binding to AhR, both in vitro and in vivo. In vitro, 3-IAld induced luciferase activity in the H1L1.1c2 cell line containing a stably-transfected AhR-responsive firefly luciferase at the dose range […] (Zelante et al, 2013). […] Preliminary pharmacokinetics data have been obtained by administration of Eudragit-formulated 3-IAld in the composition 90% 3-IAld/10% 13C8-labeled 3-IAld and targeted/untargeted analysis by mass spectrometry in serum at different times (30 minutes (min), 1 hour (h), 2 h, 4.5h, 6 h, 24h). […] The presence of indole-3-formic acid was also confirmed with labelled 3-IAld (FIG. 13E), showing a similar kinetics and a peak level of about 25 μM at 30 min.
# [2] = system: DSS+anti-CTLA-4-induced colitis; test: DSS+anti-CTLA-4-induced colitis in C57BL/6 mice; format: in vivo; conditions: for efficacy dose: intragastrically every other day, Eudragit formulations; for lymphocytic infiltration, dose dependence: 0.09-0.045-0.022 mg/mouse (4.5, 2.25 and 1.12 mg/kg), lung, spleen, liver, kidney
# Description: In trials, C57BL/6 mice received dextran sulfate sodium (DSS) (3%) in their drinking water and 100 μg anti-CTLA-4 monoclonal antibody (mAb) or isotype control antibody intraperitoneally, at days 0, 4 and 8 following the DSS administration as indicated in FIG. 2A. DSS is a water soluble, negatively charged sulfated polysaccharide with a highly variable molecular weight ranging from 5 to 1400 kDa. […] Eudragit-formulated 3-IAld (Puccetti et al, 2018) was given at 18 mg/kg 3-IAld intragastrically every other day, as illustrated in FIG. 2A. Animals were monitored daily for appearance of diarrhea, fecal blood, loss of body weight and survival. A week after DSS treatment (14 days after initiation of treatment), at the time at which the model recapitulates the human disease (Manicassamy et al, 2014), surviving mice were sacrificed, and the colon was excised and evaluated for macroscopic damage and local immune parameters.
# In trials, C57BL/6 mice received dextran sulfate sodium (DSS) (3%) in their drinking water and 100 μg anti-CTLA-4 monoclonal antibody (mAb) or isotype control antibody intraperitoneally, at days 0, 4 and 8 following the DSS administration as indicated in FIG. 17A. Eudragit-formulated 1-methylindole-3-carboxylic acid was given intragastrically every other day, at scaling doses of 0.09, 0.18, or 0.36 mg/mouse (FIG. 17A). Animals were monitored daily for the appearance of diarrhea, fecal blood and loss of body weight. A week after DSS treatment (14 days after initiation of treatment), at the time at which the murine model recapitulates the human disease (Manicassamy et al, 2014), surviving mice were sacrificed and the colon was excised and evaluated for macroscopic damage and local immune parameters. […] CTLA-4 haploinsufficiency typically presents with extensive CD3+T cell infiltration across different organs (Kuehn et al, 2014—Schubert et al, 2014—Schwab et al, 2018).
# In the DSS+anti-CTLA-4-induced colitis, mice were treated intragastrically (Eudragit formulations) every other day starting 4 days before DSS treatment and continuing until mice sacrifice. Mice were evaluated for disease activity in terms of histopathology, parameters of barrier permeability function and intestinal inflammation.
# Assessment of scaling doses of 0.09-0.045-0.022 mg/mouse (corresponding to 4.5, 2.25 and 1.12 mg/kg) in the murine model of immune-mediated colitis (DSS+anti-CTLA-4) was performed as shown in Table 2 below.
# C57BL/6 mice were treated with DSS in drinking water for 1 week followed by a recovery period of another week and administered […] of anti-CTLA-4 mAb and 1ME3CA as depicted in the experimental schedule in FIG. 23A. Mice were evaluated for weight change (FIG. 23B), disease activity index (FIG. 23C), clinical morbidity and rectal bleeding (FIG. 23D), colon and ileum histology (FIG. 23E) (PAS staining), ×40 magnification (scale bars, 100 m). Each in vivo experiment includes four to six mice per group (20 mice in each experiment).
# Photographs were taken with a high-resolution microscope, lung and spleen ×10 magnification (scale bars, 400 m) and liver and kidney ×20 magnification (scale bars, 200 m).
# B16 tumor cells = test: anti-CTLA-4-responsive B16 melanoma model; format: in vivo, C57BL/6 mice
# Description: For FIGS. 12A-12E, C57BL/6 mice were subcutaneously injected with B16 tumor cells and administered 100 μg anti-CTLA-4 mAb or isotype control intraperitoneally four times at 3-day intervals up to 16 days. 3-IAld was administered intragastrically every other day. Mice were evaluated for (FIG. 12A) tumor growth, (FIG. 12B) histology (periodic acid-Schiff staining), (FIG. 12C) immunohistochemistry for CD8+ and CD4+ tumor-infiltrating lymphocytes (TIL), (FIG. 12D) number of positive TIL per high-power field, HPF and (FIG. 12E) Cxcl9 and Perforin expression. (FIGS. 12F-12J) C57BL/6 mice were orthotopically injected with LLC cells and administered 200 μg anti-PD-1 mAb or isotype control intraperitoneally five times at 3-day intervals up to 18 days. 3-IAld was administered intragastrically every other day. Mice were evaluated for (FIG. 12F) % survival, (FIG. 12G) lung weight, (FIG. 12H) lung gross pathology, (FIGS. 12I, 12J) CD4+CD25+Foxp3+ cells. Photographs were taken with a high-resolution microscope, ×40 magnification (scale bars, 100 μm). Each in vivo experiment includes three mice per group (nine mice in each experiment). […]
# The potential application of 3-IAld requires that its immunoregulatory activity would not impinge the tumor immunosurveillance. To this purpose, the effect of 3-IAld was assessed in the anti-CTLA-4-responsive B16 melanoma model (Renga et al, 2022).
# [3] = system: pathology after chronic treatment with anti-CTLA-4 monoclonal antibody; test: chronic anti-CTLA-4 treatment in 16 wk-old Il10−/− mice, without DSS; format: in vivo
# Source text: Animals were monitored daily for body weight, disease activity index, clinical inspection, inflammatory pathology in the ileum and colon, epithelial barrier function and immunological parameters of inflammation. […] Consistent with the extensive T cells infiltration in different organs observed in CTLA-4 haploinsufficiency (Kuehn et al, 2014; Schubert et al, 2014; […] No lymphocytic infiltration or immunopathology were detected in organs, such as the spleens and kidneys (data not shown).
# [4] = 3-IAld 18 mg/kg, colon homogenates
# [5] = 3-IAld 18 mg/kg, surviving mice, 14 days
# [6] = Eudragit-formulated 3-IAld 18 mg/kg intragastrically every other day
# [7] = 1-methylindole-3-carboxylic acid
# [8] = 1-methylindole-3-carboxylic acid 0.09, 0.18 or 0.36 mg/mouse every other day
# [9] = 1-methylindole-3-carboxylic acid 0.09-0.36 mg/mouse
compound,measurement,setting,value
"O=Cc1c[nH]c2ccccc12 [3-IAld, 1H-indole-3-carbaldehyde]",labelled 3-IAld serum level at 2 h,[1]; in vivo,sharply reduced levels
same,metabolic conversion,[1]; in vivo,rapid metabolic conversion
same,time of peak of labelled 3-IAld in serum,[1]; in vivo,30 to 60 min
same,anti-inflammatory state,[2]; 3-IAld 18 mg/kg,promotes an anti-inflammatory state
same,epithelial barrier integrity,[2]; 3-IAld 18 mg/kg,provides epithelial barrier integrity
same,expression of IL-22 (gene and protein),[2]; 3-IAld 18 mg/kg,induced expression
same,"expression of Lgr5, Nfil3 and Muc1",[2]; 3-IAld 18 mg/kg,promoted the expression
same,expression of the AhR-dependent genes Cyp1a1 and Ahrr,[2]; 3-IAld 18 mg/kg,induced expression
same,expression of the antimicrobial peptide Reg37,[2]; 3-IAld 18 mg/kg,induced expression
same,gut inflammatory pathology (overall),[2]; 3-IAld 18 mg/kg intragastrically every other day,prevent gut inflammatory pathology; also recorded: protects from inflammatory pathology
same,amounts of IL-10,[2]; [4],increased amounts
same,"levels of TNF-α, IL-10 and IL-17A",[2]; [4],reduced levels
same,levels of calprotectin,[2]; [4],reduced
same,passage of dextran-FITC across the intestinal barrier,"[2]; 3-IAld 18 mg/kg, serum",reduced
same,epithelial barrier function (expression of ZO-1),[2]; [5],recovery
same,epithelial cell proliferation and renewal (Ki-67 staining),[2]; [5],recovery
same,gross pathology,[2]; [5],improved
same,normal architecture structure of the colon,[2]; [5],recovery
same,body weight,[2]; [6],increased
same,disease activity index,[2]; [6],decreased
same,survival,[2]; [6],increased
same,efficacy dose,[2],18 mg/kg
same,recruitment of CD4+ and CD8+ tumour-infiltrating lymphocytes,B16 tumor cells; 3-IAld with anti-CTLA-4 mAb,did not affect
same,development of antitumor immunity / tumor immunosurveillance (overall),B16 tumor cells; B16 and LLC models,does not interfere
same,cytotoxic effects / pathology induced by CTLA-4 blockade (overall),"[3]; 3-IAld, chronic schedule",effective; also recorded: protects
same,CD3+ T cell (lymphocytic) infiltration,"[3]; ileum, colon, lung and liver, anti-CD3 staining",significantly reduced; also recorded: reduces lymphocytic infiltration
"Cn1cc(C(=O)O)c2ccccc21 [1-methylindole-3-carboxylic acid, 1-Methyl-1H-indole-3-carboxylic acid]",time of peak levels as metabolite of 3-IAld,[1]; same kinetics as indole-3-formic acid,30 min
same,"inflammatory pathology, dose dependence",[2]; 0.09-0.045-0.022 mg/mouse,protects from inflammatory pathology
same,"lymphocytic infiltration, dose dependence",[2]; listed as 1ME3CA,reduces lymphocytic infiltration in anti-CTLA-4-treated mice in a dose-dependent manner
same,"lymphocytic infiltration, dose dependence",[2]; listed as MECA,reduces lymphocytic infiltration
same,Il1b expression in the colon,[2]; [7],reduced levels
same,Il10 expression in the colon,[2]; [7],increased levels
same,anti-inflammatory state and AhR activation,[2]; [7],promotes an anti-inflammatory state and AhR activation
same,clinical morbidity and rectal bleeding,[2]; [8],protected
same,disease activity index,[2]; [8],decreased
same,CD3+ T cell (lymphocytic) infiltration in the lung,[2]; [9],effective in reducing; also recorded: reduces lymphocytic infiltration
same,CD3+ T cell infiltration in the ileum and colon,[2]; [9],significantly reduced
same,gut inflammatory pathology (overall),[2]; [9],prevent gut inflammatory pathology; also recorded: protects from inflammatory pathology
same,normal architectural structure of the colon and ileum,[2]; [9],recovery
same,epithelial barrier function (expression of ZO-1),"[2]; 1-methylindole-3-carboxylic acid 0.09-0.36 mg/mouse, colon and ileum",maintenance
same,"expression of the AhR-dependent genes Cyp1a1, the antimicrobial peptide Reg3g, and 1122","[2]; 1-methylindole-3-carboxylic acid, listed as 1-Methylindole-3-Carboxylic Acid",Potent Activator
same,"expression of the AhR-dependent genes Cyp1a1, the antimicrobial peptide Reg3g, and 1122","[2]; 1-methylindole-3-carboxylic acid, listed as 1-methylindole-3-carboxylic",induced the expression
same,body weight loss,"[2]; Eudragit-formulated 1-methylindole-3-carboxylic acid 0.09, 0.18 or 0.36 mg/mouse intragastrically every other day",significant attenuation
same,effects at each administered dose,[2]; each dose including 0.09 mg/mouse,Positive effects
same,efficacy dose,[2],2.25 mg/kg
